# Test: Case report: incontinence person with enlarged prostate
# Format: in vivo, human
# Conditions: prescribed for enlarged prostate
# Description: The 9-herb composition and Incontinence. Person diagnosed with having an enlarged prostate suffered from frequent-urination problems including increased daily frequency and reduced volume. They had the urge to urinate every two hours and the amount was only a few drops. Their symptoms were attributed to old age. […] They are able to urinate what they consider a normal amount of urine in a steady stream as opposed to the dribbling they experienced prior to taking the 9-herb composition. […] Because they are sleeping better, they have more energy throughout the day.
smiles,measurement,value
CC(C)(C)NC(=O)[C@H]1CC[C@H]2[C@@H]3CC[C@H]4NC(=O)C=C[C@]4(C)[C@H]3CC[C@]12C [PROSCAR],effect on urination problem,did not alleviate the urination problem
